Experimental data as given in patent US6846845B2, “Heat shock protein inducer” (Eisai Co., Ltd., priority 2002, dated 2005).

Legend:
Format in all cases: in vivo, rat
[1] = tested on: myocardial cells; assay: Electron microscope findings in left ventricular papillary muscle after ischemia/reperfusion; conditions: GGA-treated rats, 20 min no-flow ischemia and 30 min reperfusion
Description: After 30 minutes of reperfusion […] 20 minutes of no-flow ischemia, the papillary muscle of the left ventricle was immediately removed from the GGA-treated and Control hearts, and cut into small blocks. The tissue blocks were then fixed in a cacodylate buffered (pH 7.4) solution containing 2.5% glutaraldehyde and paraformaldehyde at 4° C. for 2 hours, and postfixed in a cocodylate buffered (pH 7.4) solution containing 2% osmium tetroxide and 0.5% potassium ferrocyanide at 4° C. for 2 hours. The tissue blocks were then dehydrated in ethanol and embedded in epoxy resin. Ultra-thin sections were stained with uranyl acetate and lead cistate, and were viewed under a transmission electron microscope (JOEL-100CX, Tokyo).

[2] = tested on: HSP27; assay: HSP27 induction in the heart after oral administration (Western blotting); conditions: oral 200 mg/kg, 24 hours after administration, FIG. 3(A)
Description: An emulsion of 100% by weight of geranylgeranylacetone (GGA) with 5% by weight of gum arabic and 0.008% by weight of tocopherol was given orally to the rats described above. The oral dosages were 50 mg/kg, 100 mg/kg, 200 mg/kg and 400 mg/kg (GGA groups). […] The vehicle was administered orally to the Control Group.
Next, the hearts were removed from the killed rats and frozen in liquid nitrogen.
Western blotting was then performed (Maloyan A, Palmon A, Horowitz M. Heat acclimation increases the basal HSP70 level and alters its production dynamics during heat stress. Am J Physiol 1999; 276:R1506-R1515). The frozen hearts were homogenized with SDS (sodium dodecyl sulfate) buffer, centrifuged and boiled.
The total protein concentration of the myocardium was quantified by the Bradford method (Bradford M M. A rapid and sensitive method for quantitation of microgram quantities of protein utilizing the principle of protein-dye binding. Anal Biochem 1976; 72:248-254). The prepared hearts were then diluted in electrolyte buffer. […] The proteins were detected by exposing the ECL cells with Hyperfilm (Amersham Pharmacia, Buckinghamshire, UK). Based on this, the amount of proteins on the immunoblots was quantified using National Institutes of Health (NIH) imaging software. […]

[3] = tested on: heat shock factor 1 (HSF1); assay: HSF1 phosphorylation and translocation in cytosolic and nuclear heart fractions (Western immunoblotting); conditions: 24 h after GGA 200 mg/kg oral or vehicle; chelerythrine 5 mg/kg i.v. pretreatment, FIG. 9
Description: Male Sprague-Dawley rats (220-250 g) were used. GGA, as an emulsion with 5% gum arabic and 0.008% tocopherol, was given orally at a dose of 200 mg/kg. Rats were classified into 4 groups. FIG. 7 is a diagrammatic representation of experimental protocol. […] Twenty-four hours after oral administration of GGA or vehicle, rats were anesthetized (sodium pentobarbital, 50 mg/kg IP) and heparinized (500 IU/kg IP). Hearts were excised, immediately frozen in liquid nitrogen, and stored at −70° C. until use for Western blot analysis (n=4 for each group). […]
To analyze the expression of HSP70, the frozen heart samples were homogenized with SDS sample buffer (pH 6.8, 20% glycerol, 6% SDS, 0.12M Tris), centrifuged and boiled (Maloyan A, Palmon A, Horowitz M. Heat acclimation increases the basal HSP70 level and alters its production dynamics during heat stress. Am J Physiol. 1999; 276:R1506-R1515.). […] The total protein concentration of heart was quantified by the Bradford method (Bradford MM. A rapid and sensitive method for quantitation of microgram quantities of protein utilizing the principle of protein-dye binding. Anal. Biochem. 1976;72:248-254). […] The proteins were detected by ECL with exposure to Hyperfilm (Amersham Pharmacia). The amount of protein on the immunoblots was quantified using National Institutes of Health image software. […]

SMILES: CC(=O)CCC=C(C)CCC=C(C)CCC=C(C)CCC=C(C)C [GGA, 6, 10, 14, 18-tetramethyl-5,9, 13, 17-nonadecatetraen-2-one]
- microstructure of myocardial cells by transmission electron microscopy [1]: preserved microstructurally
- HSP27 expression versus vehicle [2]: no obvious difference
- amount of phosphorylated form of HSF1 in the nuclear fraction [3]: increased
